# Assays:
# [1] = system: CDR1 (B9J08_000164) and CDR4-1 (B9J08_000479); test: RT-qPCR of efflux gene expression; assay type: cell-based, Candida auris; details: azoffluxin alone, 3 hours
# Source text: FIGS. 3A-3B, and 4A-4B illustrate azoffluxin increases fluconazole (FLC) bioavailability by inhibiting Cdr1-mediated efflux in C. auris, as described above. FIG. 3A depicts the relative abundance of specific sterols determined in C. auris after an 18-hour treatment with the respective compounds (⋅ indicates combo treatment concentrations) using LC-MS. Values are plotted relative to the internal standard of cholesterol and error bars indicate standard deviation between technical triplicates. Significance was determined by an unpaired student t-test of each condition to untreated, (*) indicates a p-value<0.05 and (**) indicates a p-value<0.01. FIG. 3B depicts the intracellular concentrations of FLC and azoffluxin measured after treatment for 1 hour (conditions as in FIG. 3A) Error bars indicate standard deviation between technical triplicates. Significance was determined by an unpaired student t-test, (**) indicates a p-value<0.01. FIG. 4A depicts the quantified relative expression of a panel of putative efflux pumps in C. auris Ci6684. Expression of CDR1 (B9J08_000164), MDR1 (B9J08_003981), CDR4-1 (B9J08_000479), CDR4-2 (B9J08_002451), SNQ2-1 (B9J08_001125), and SNQ2-2 (B9J08_004452) was measured by RT-qPCR. […] FIG. 4B depicts expression of CDR1 (B9J08_000164) and CDR4-1 (B9J08_000479) measured by quantitative real-time PCR (RT-qPCR). […]
# C. auris = test: Dose-response of other antifungal compounds with or without 50 μM azoffluxin; assay type: cell-based, Candida auris; details: 48 hours, YPD
# Method: FIGS. 7A and 7B illustrates that azoffluxin potentiates intracellular acting compounds against C. auris, to a similar degree as deletion of CDR1. […] Cells were then imaged on the DIC and DsRed channels at equivalent exposure times as those in FIG. 5A. FIG. 7B depicts a dose response assays conducted with a C. auris parental strain in the absence and presence of 50 μM azoffluxin where indicated, as well as with a strain with the efflux pump gene CDR1 deleted. Indicated compounds were titered in a two-fold dilution on the x-axis. Growth was measured after 48 hours in YPD using OD600 and normalized to a no drug control well (see color bar).
# Compound potency was assessed alone by dose response assays or in combination with another compound by dose-response matrixes in 96-well plates, or 384-well, flat-bottom, microtiter plates (Corning) as previously described. Plates were incubated at 30° C. for the indicated time period. Growth was quantified by measuring OD600 and corrected for medium background. All strains were assessed in biological duplicate experiments with technical duplicates. Growth was normalized to untreated controls and plotted as a heat map using Java TreeView 1.1.6r4. For dose-response matrixes fractional inhibitory concentration index at 90% growth inhibition (FICI90) was calculated as previously described. […]
# [2] = Single dose plasma pharmacokinetic profile; assay type: in vivo, mice; details: mouse
# Tolerability = assay type: in vivo; details: 10 mg/Kg BID for 4 days
structure (smiles),measurement,setting,value
C=C(C)C[C@@H](O)COc1cc2c(cc1C1(c3cc4c(cc3OC[C@H](O)CC(=C)C)OCO4)C(=O)Nc3cc(F)ccc31)OCO2 [CMLD012336],CDR1 and CDR4-1 transcript levels,[1],concentration-dependent increase
same,sensitivity to caspofungin and amphotericin B,C. auris,no impact on sensitivity
same,"sensitization to gepinacin, cerulenin, and cycloheximide",C. auris,to the same extent as CDR1 deletion
same,half-life,[2],2.6 h
same,tolerability,Tolerability,well tolerated

# — US11773086B2, “Fungal modulators” (TRUSTEES OF BOSTON UNIVERSITY, priority 2020, dated 2023)
